Test results from article PMC5840146, “Structure-Activity Relationship Analysis of 3-Phenylcoumarin-Based Monoamine Oxidase B Inhibitors” (Frontiers in Chemistry, 2018).
“And” between values parts separate entries of the source, which are not always exact repeats. Equal entries are not always repeated. Where two headings read alike, the source gives them in different places.

Columns and labels:
Format in all cases: biochemical
human CYP1A2 = molecular target: T1, human CYP1A2 (Homo sapiens, UniProt P05177); assay: CYP1A2 inhibition, 7-ethoxyresorufin fluorescence assay
T1 construct: purchased Corning Inc
T1 sequence (P05177 1-516): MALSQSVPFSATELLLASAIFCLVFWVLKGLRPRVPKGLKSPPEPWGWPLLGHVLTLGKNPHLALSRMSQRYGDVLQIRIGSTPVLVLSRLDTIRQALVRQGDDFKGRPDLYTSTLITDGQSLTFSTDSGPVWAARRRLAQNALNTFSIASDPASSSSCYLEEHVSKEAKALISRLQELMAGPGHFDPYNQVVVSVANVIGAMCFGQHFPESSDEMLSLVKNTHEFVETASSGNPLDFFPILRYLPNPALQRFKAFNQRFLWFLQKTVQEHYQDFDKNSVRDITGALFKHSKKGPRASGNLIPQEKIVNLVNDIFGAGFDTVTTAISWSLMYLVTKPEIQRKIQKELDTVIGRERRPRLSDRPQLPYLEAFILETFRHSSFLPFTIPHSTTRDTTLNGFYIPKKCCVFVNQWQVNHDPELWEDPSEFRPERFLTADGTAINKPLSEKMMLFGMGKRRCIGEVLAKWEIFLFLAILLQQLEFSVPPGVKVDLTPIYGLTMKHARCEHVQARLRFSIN
Method: Inhibition of CYP1A2 activity was determined with commercial heterologously expressed human CYP1A2 enzyme (Corning Inc., Corning, NY, USA) as described earlier (Korhonen et al., [2005]). The metabolic activity was not in the scope of this particular study. The assay was adapted to the 96-well plate format. In each well, a 150 μL incubation volume contained 100 mM Tris-HCl buffer (pH 7.4), 4.2 mM MgCl2,1 μM 7-ethoxyresorufin, 0.5 pmol of cDNA expressed CYP1A2, […] inhibitor, and a NADPH-generating system. All inhibitors were dissolved in ethanol, and the final concentration of ethanol was 2% in all incubations. The reaction was initiated by adding the NADPH-regenerating system after a 10 min preincubation at 37°C, and after a 20 min incubation, the reaction was terminated by the addition of 110 μL of 80% acetonitrile/20% 0.5 M Tris base. The formed fluorescence was measured with a Victor2 plate counter (Perkin-Elmer Life Sciences Wallac, Turku, Finland) at 570 nm excitation and 616 nm emission.

MAO-B = molecular target: T2, MAO-B (Homo sapiens, UniProt P27338); assay: continuous spectrophotometric MAO-B inhibition assay; conditions: for MAO-B inhibition %: 10 µM, 2h; for LiPE: LiPE = pIC50 - QPlogPo/w, new analogs and pargyline; for IC50: duplicates
T2 construct: purchased Sigma-Aldrich
T2 sequence (P27338 1-520): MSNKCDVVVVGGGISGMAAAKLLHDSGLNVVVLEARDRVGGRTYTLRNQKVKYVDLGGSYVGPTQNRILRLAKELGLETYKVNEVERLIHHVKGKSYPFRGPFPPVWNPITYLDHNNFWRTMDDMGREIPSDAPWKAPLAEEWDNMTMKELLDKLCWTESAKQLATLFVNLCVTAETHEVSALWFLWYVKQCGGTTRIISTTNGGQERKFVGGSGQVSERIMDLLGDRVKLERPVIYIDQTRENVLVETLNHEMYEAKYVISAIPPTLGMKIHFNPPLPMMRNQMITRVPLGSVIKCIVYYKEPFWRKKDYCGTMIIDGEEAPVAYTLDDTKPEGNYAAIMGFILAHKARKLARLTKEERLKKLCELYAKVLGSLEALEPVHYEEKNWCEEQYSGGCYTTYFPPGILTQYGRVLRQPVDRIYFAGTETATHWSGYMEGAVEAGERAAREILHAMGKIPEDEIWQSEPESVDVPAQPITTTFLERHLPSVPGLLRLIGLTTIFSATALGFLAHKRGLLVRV
Method: (§1) Both monoamine oxidase A (MAO-A) and B (MAO-B) protein and the reagents for the chromogenic solution of vanillic acid (4-hydroxy-3-methoxylbenzoic acid, 97% purity), 4-aminoantipyrine (reagent grade), horseradish peroxidase and the substrate tyramine hydrochloride (minimum 99% purity) as well as the potassium phosphate buffer, which was prepared using potassium phosphate dibasic trihydrate (≥99% ReagentPlus™) and potassium phosphate monobasic (minimum 98% purity, molecular biology tested), were purchased from Sigma-Aldrich (St. Louis, MO, USA) for the spectrophotometric assay.
(§2) The protocol for continuous spectrophotometric assay (Holt et al., [1997]) was followed in the activity measurements. The assay was performed in 0.2 M potassium phosphate buffer pH 7.6 on 96-well plates (Nunc™ 96F microwell plate without a lid, Nunc A/S, Roskilde, DK) in 200 μl total volume. The chromogenic solution containing 1 mM vanillic acid, 500 μM 4-aminoantipyrine and 8 U/ml horseradish peroxidase in 0.2 M potassium phosphate buffer pH 7.6 was mixed anew for each measurement. 5 mM tyramine solution was used as the substrate. In order to determine the activity of both MAO-B and MAO-A, concentration series as duplicates were prepared. The protein was combined with the chromogenic solution and incubated 30 min at 37°C. The background signal was measured using multilabel reader (Victor^TM X4, 2030 Multilabel Reader, PerkinElmer, Waltham, MA, USA) at A490 before reaching the total 200 μl volume by adding 20 μl of tyramine to final concentration of 0.5 mM on the plate. As a result, the final concentration of the chromogenic solution on the plate was 250 μM vanillic acid, 125 μM 4-aminoantipyrine and 2 U/ml horseradish peroxide. After adding the substrate, the plates were measured 300 times every 15 s using 1 s exposure time. The device was set to 37°C for the duration of the experiment.
(§3) The experiment conditions should produce absorbance change of ~0.35 (Holt et al., [1997]). […] The same wide panel of coumarin derivatives was additionally used to analyze the MAO-A inhibition at 100 μM (Table 1, Supplementary Table S1).
(§4) The measured data was then fitted on a curve using non-linear regression with the equation for log[inhibitor] vs. response. The IC50 values were therefore determined based on the curve fit. The fitted curves are shown on –log scale in Supplementary Figures S1, S2.

MAO-A = molecular target: T3, MAO-A (Homo sapiens, UniProt P21397); assay: continuous spectrophotometric MAO-A inhibition assay; conditions: for MAO-A inhibition %: 100 µM, 1h
T3 construct: purchased Sigma-Aldrich
T3 sequence (P21397 1-527): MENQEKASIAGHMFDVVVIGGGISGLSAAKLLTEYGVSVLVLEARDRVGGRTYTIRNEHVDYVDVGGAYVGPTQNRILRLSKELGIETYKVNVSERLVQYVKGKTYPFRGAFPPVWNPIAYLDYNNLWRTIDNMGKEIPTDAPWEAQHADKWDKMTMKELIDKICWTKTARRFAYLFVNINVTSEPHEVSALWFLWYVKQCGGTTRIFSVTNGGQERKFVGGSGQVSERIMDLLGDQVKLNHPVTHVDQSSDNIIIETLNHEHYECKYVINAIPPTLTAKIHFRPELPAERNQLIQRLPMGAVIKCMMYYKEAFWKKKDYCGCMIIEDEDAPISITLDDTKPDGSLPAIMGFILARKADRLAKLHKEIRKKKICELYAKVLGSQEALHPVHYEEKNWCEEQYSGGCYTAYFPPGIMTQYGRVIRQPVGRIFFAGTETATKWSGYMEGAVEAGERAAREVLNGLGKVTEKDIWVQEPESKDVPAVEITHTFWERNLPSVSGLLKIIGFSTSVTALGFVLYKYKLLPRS
Method: as §1, §2, §3, §4

recombinant human HSD1 = molecular target: T4, recombinant human HSD1 (Homo sapiens, UniProt P14061); assay: HSD1 inhibition by HPLC with tritium labeled estrone/estradiol; conditions: for HSD1 inhibition % / inhibition at 1 µM: 1 μM
T4 construct: made in house; host or cells: Sf9 insect cells
T4 sequence (P14061 1-328): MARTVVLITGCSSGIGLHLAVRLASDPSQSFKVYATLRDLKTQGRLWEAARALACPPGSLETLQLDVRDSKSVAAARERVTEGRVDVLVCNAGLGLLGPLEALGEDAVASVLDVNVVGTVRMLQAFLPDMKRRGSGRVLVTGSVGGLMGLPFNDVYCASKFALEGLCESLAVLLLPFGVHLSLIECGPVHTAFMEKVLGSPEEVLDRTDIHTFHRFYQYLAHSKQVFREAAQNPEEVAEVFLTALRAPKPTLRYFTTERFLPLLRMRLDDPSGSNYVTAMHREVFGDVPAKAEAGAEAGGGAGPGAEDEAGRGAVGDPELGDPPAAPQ

[1] = dilution series 50 μM to 1 nM, read-out: MAO-B inhibition IC50

Compound	IC50 (human CYP1A2) [µM]	MAO-B inhibition % (MAO-B) [%]	MAO-A inhibition % (MAO-A) [%]	HSD1 inhibition % (recombinant human HSD1) [%]	inhibition at 10 µM (MAO-B) [%]	LiPE (MAO-B)	inhibition at 100 µM (MAO-A; 100 μM) [%]	inhibition at 1 µM (recombinant human HSD1) [%]	IC50 (MAO-B; [1])	MAO-B inhibition (in words) (MAO-B)	IC50 (MAO-B; MAO-B inhibition IC50, dilution series 50 μM to 1 nM)	MAO-A inhibition (in words) (MAO-A; 100 μM)	HSD1 inhibition (in words) (recombinant human HSD1)
COc1ccc2oc(=O)c(-c3ccc(C(F)(F)F)cc3)cc2c1 [derivative 1, 6-methoxy-3-(4-(trifluoromethyl)phenyl)-2H-chromen-2-one]	124	–	–	–	99.5	3.17	0	0	–	–	~56 nM and 50 to 60 nM and 56 nM	does not produce MAO-A inhibition	does not inhibit HSD1
COc1cc(OC)cc(-c2cc3cc(OC)ccc3oc2=O)c1 [derivative 9, 3-(3,5-dimethoxyphenyl)-6-methoxy-2H-chromen-2-one]	84	–	–	–	80.2	3.38	0	0	~255 nM and 255 nM	–	–	–	–
COc1ccc(-c2cc3cccc(OC(C)=O)c3oc2=O)cc1 [derivative 35]	26	42.37	4.08	0.00	–	–	–	–	–	–	–	–	–
COc1ccc2cc(-c3ccc(OC(C)=O)c(F)c3)c(=O)oc2c1 [derivative 6, 2-fluoro-4-(7-methoxy-2-oxo-2H-chromen-3-yl)phenyl acetate]	–	–	–	–	99.9	4.25	0	21	~189 nM and 189 nM	–	–	–	–
C#CCN(C)Cc1ccccc1 [pargyline, reference compound]	–	–	–	–	102	–	–	–	–	–	–	–	–
COc1ccc2cc(-c3cccc(OCc4ccccc4)c3)c(=O)oc2c1 [derivative 51]	3	6.66	0.00	31.60	–	–	–	–	–	–	–	–	–
COc1ccc(-c2cc3cc(Cl)cc(Cl)c3oc2=O)cc1 [derivative 32]	800	47.77	0.00	–	–	–	–	–	–	–	–	–	–
CC(=O)Oc1cccc2cc(-c3ccc(N(C)C)cc3)c(=O)oc12 [derivative 26]	7	66.79	0.00	0.00	–	–	–	–	–	–	–	–	–
COc1cc(OC)cc(-c2cc3cc(Cl)cc(Cl)c3oc2=O)c1 [derivative 34]	30	46.01	0.00	0.30	–	–	–	–	–	–	–	–	–
CC(=O)Oc1ccc2cc(-c3ccccc3)c(=O)oc2c1 [derivative 52]	80	0.00	0.00	0.70	–	–	–	–	–	activity is lost	–	–	–

Continued by falling IC50 (human CYP1A2), values first:

IC50 (human CYP1A2) [µM]	MAO-B inhibition % (MAO-B) [%]	MAO-A inhibition % (MAO-A) [%]	HSD1 inhibition % (recombinant human HSD1) [%]	inhibition at 10 µM (MAO-B) [%]	LiPE (MAO-B)	inhibition at 100 µM (MAO-A; 100 μM) [%]	inhibition at 1 µM (recombinant human HSD1) [%]	IC50 (MAO-B; [1])	MAO-B inhibition (in words) (MAO-B)	Compound	IC50 (MAO-B; MAO-B inhibition IC50, dilution series 50 μM to 1 nM)	MAO-A inhibition (in words) (MAO-A; 100 μM)	HSD1 inhibition (in words) (recombinant human HSD1)
87.5	–	–	–	75.8	2.73	–	1	8480 nM	–	COc1ccc(-c2cc3cc(OC(C)=O)ccc3oc2=O)cc1 [derivative 14, 3-(4-methoxyphenyl)-2-oxo-2H-chromen-6-yl acetate]	–	–	–
65	8.16	0.00	1.50	–	–	–	–	–	activity is lost	O=c1oc2c(CN3CCCCC3)c(O)ccc2cc1-c1ccccc1 [derivative 50]	–	–	–
17	15.81	22.33	0.00	–	–	–	–	–	–	CC(=O)Oc1cccc2cc(-c3ccc(F)cc3)c(=O)oc12 [derivative 47]	–	–	–
15	–	–	–	97.6	3.25	10.1	0	400 nM	–	COc1ccc(-c2cc3cc(OC)ccc3oc2=O)cc1 [derivative 10, 6-methoxy-3-(4-methoxyphenyl)-2H-chromen-2-one]	–	–	–
